Our source for the Kd values is ChEMBL document CHEMBL1132683 (Bioorg Med Chem Lett, 1999).

One assay concerns the target Vasopressin V2 receptor (Rattus norvegicus, UniProt Q00788). As to the kind of experiment: Compound was evaluated for its dissociation constant (Kd) to rat kidney Vasopressin V2 receptor.
Assay [1] concerns the target Oxytocin receptor (Cavia porcellus). In words: Compound was evaluated for its dissociation constant (Kd) to guinea pig myometrial Oxytocin receptor.
The next assay has as its target Vasopressin V1 receptor (Rattus norvegicus, UniProt P48974+P30560). In words: Compound was evaluated for its dissociation constant (Kd) to rat liver Vasopressin V1 receptor.

Numbered stars: 1 amine (or outer) side, 2 acyl side, 3 side chain; on linkers, the order of the positions; unused ones are H or OH. Bridge positions count the residues as written; N and C are the ends. Square brackets hold non-standard residues; d marks the D form. Peptide text beside a SMILES is read from it. X1 = O=C([C@@]1(N[*:1])CCc2ccccc2C1)[*:2]; Atc(2S) = N[C@@]1(C(=O)O)CCc2ccccc2C1; Mpa = O=C(O)CCS; Sar = CNCC(=O)O

Vasopressin V2 receptor, sequence (Q00788 whole entry): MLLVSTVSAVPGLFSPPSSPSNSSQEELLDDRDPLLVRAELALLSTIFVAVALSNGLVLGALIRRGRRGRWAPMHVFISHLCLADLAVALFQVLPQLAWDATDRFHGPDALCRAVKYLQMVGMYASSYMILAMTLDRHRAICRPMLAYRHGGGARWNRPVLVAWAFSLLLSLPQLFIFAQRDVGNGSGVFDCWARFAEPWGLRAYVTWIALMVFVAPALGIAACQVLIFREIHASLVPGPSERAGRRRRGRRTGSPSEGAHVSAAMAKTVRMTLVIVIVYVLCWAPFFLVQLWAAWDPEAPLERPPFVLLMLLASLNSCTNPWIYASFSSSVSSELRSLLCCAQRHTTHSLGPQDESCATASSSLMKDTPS

On Vasopressin V2 receptor, `CC[C@H](C)[C@@H]1NC(=O)[C@@H](Cc2ccccc2)NC(=O)CCSSC[C@@H](C(=O)N(C)CC(=O)N[C@@H](CCCNC(=N)N)C(=O)NCC(N)=O)NC(=O)[C@H](CC(N)=O)NC(=O)[C@H](CCC(N)=O)NC1=O` had a Kd of 421 nM.
Turning to `CC[C@H](C)[C@@H]1NC(=O)[C@@H](Cc2c[nH]c3ccccc23)NC(=O)CC2(CCCCC2)SSC[C@@H](C(=O)N(C)CC(=O)N[C@@H](CCCNC(=N)N)C(=O)NCC(N)=O)NC(=O)[C@H](CC(N)=O)NC(=O)[C@H](CCC(N)=O)NC1=O`, the dissociation constant Kd in assay [1] is 6 nM; on Vasopressin V2 receptor it was 3 nM.
For `CC[C@H](C)[C@@H]1NC(=O)[C@@]2(CCc3ccccc3C2)NC(=O)CCSSC[C@@H](C(=O)N(C)CC(=O)N[C@@H](CCCN=C(N)N)C(=O)NCC(N)=O)NC(=O)[C@H](CC(N)=O)NC(=O)[C@H](CCC(N)=O)NC1=O` ([Mpa][Atc(2S)]IQNC[Sar]RG-NH2; disulfide 1-6), the figures for the Kd at Vasopressin V1 receptor and on Vasopressin V2 receptor were 17600 nM and 2290 nM, respectively.
The like results for `CC[C@H](C)[C@@H]1NC(=O)[C@@H]2c3[nH]c4ccccc4c3CCN2C(=O)CCSSC[C@H](C(=O)N(C)CC(=O)N[C@@H](CCCN=C(N)N)C(=O)NCC(N)=O)NC(=O)[C@H](CC(N)=O)NC(=O)[C@H](CCC(N)=O)NC1=O` were, in that order, 17.8 nM and above 100000 nM.
As for `CC[C@H](C)[C@@H]1NC(=O)[C@@H]2c3[nH]c4ccccc4c3CCN2C(=O)CCSSC[C@H](C(=O)N(C)CC(=O)N[C@@H](CCCN=C(N)N)C(=O)NCC(N)=O)NC(=O)[C@H](CC(N)=O)NC(=O)[C@H](CCC(N)=O)NC1=O` (single isomer, unassigned), the dissociation constant Kd at Vasopressin V1 receptor was 63.5 nM; at Vasopressin V2 receptor, above 100000 nM.
For `CC[C@H](C)[C@@H]1NC(=O)[C@@H](Cc2c[nH]c3ccccc23)NC(=O)CCSSC[C@@H](C(=O)N(C)CC(=O)N[C@@H](CCCNC(=N)N)C(=O)NCC(N)=O)NC(=O)[C@H](CC(N)=O)NC(=O)[C@H](CCC(N)=O)NC1=O`, in that order: 888 nM and 4960 nM.
For `CC[C@H](C)[C@@H]1NC(=O)[C@]2(CCc3ccccc3C2)NC(=O)CCSSC[C@@H](C(=O)N(C)CC(=O)N[C@@H](CCCN=C(N)N)C(=O)NCC(N)=O)NC(=O)[C@H](CC(N)=O)NC(=O)[C@H](CCC(N)=O)NC1=O` ([Mpa][X1]IQNC[Sar]RG-NH2; disulfide 1-6), in that order: 2640 nM and 5340 nM.

Broadly, the Kd is the concentration at which binding is half-saturated.
